Source: article PMC11048155, “Antiviral Drug Candidate Repositioning for Streptococcus suis Infection in Non-Tumorigenic Cell Models” (Biomedicines, 2024)
≈ marks a conversion by molar mass, not a printed value. Entries after “also recorded” stand apart in the source; their conditions may differ.

Legend:
[1] = test system: Pseudomonas (P.) aeruginosa (ATCC 27853); test: MIC measurement (broth microdilution); assay type: cell-based; details: source ATCC, 18–24 h at 37 °C
[2] = test system: Salmonella (S.) enterica (clinical isolate); test: MIC measurement (broth microdilution); assay type: cell-based; details: source 204/22, 18–24 h at 37 °C
From the text: Bacterial strains used in this study were as follows: S. suis serotype 2 (ATCC 958242) Staphylococcus (S.) aureus (ATCC 10832), Escherichia (E.) coli (ATCC 11775), Pseudomonas (P.) aeruginosa (ATCC 27853), Pasteurella (P.) multocida (clinical isolate), Burkholderia (B.) cepacia (clinical isolate), Salmonella (S.) enterica (clinical isolate), and Enterococcus (E.) faecalis (clinical isolate). Of the clinical isolates used in this study, P. multocida is of porcine origin, B. cepacia is of human origin, and S. enterica and E. faecalis are of poultry origin. The bacterial strains were stored in the Microbiology Laboratory of the University of Veterinary Medicine, Budapest, at a temperature of −80 °C. Bacterial strains were inoculated the day before the test in 5 mL of Cation-Adjusted Mueller–Hinton Broth (CAMHB) and incubated for 18–24 h at 37 °C. The initial inoculum concentration used for the MIC assay was 5 × 10^5/mL. All wells except the first column of the working plates were filled with 90 µL CAMHB. A stock solution of inhibitors at 800 µM was then prepared, 180 µL of which was measured into the first column of plates and used to prepare a 2-based dilution on 96-well plates. After the 10th column, the tips were discarded with the 90 µL excess solution so that each column contained 90 µL of solution. Each bacterial strain was tested in a single row on the working plates. A bacterial suspension diluted to 25× was prepared on an auxiliary plate for bacterial inoculation by loading 240 µL of TSB per column of plates and adding 10–10 µL of bacterial strain suspension per well. In the next step, the isolated bacterial strains were inoculated onto the plates. Starting from column 11 (positive control) of the plates containing dilution row 2, 10 µL of bacterial suspension was added to each well, working backward. Column 11 served as a positive control (containing only bacterial suspension and broth), while column 12 served as a negative control (containing only broth). The microplates were then incubated at 37 °C for 18–24 h, and the MIC values were assessed in comparison to positive controls.

[3] = test system: Pasteurella (P.) multocida (clinical isolate); test: MIC measurement (broth microdilution); assay type: cell-based; details: source 380/22, 18–24 h at 37 °C
[4] = test system: Staphylococcus (S.) aureus (ATCC 10832); test: MIC measurement (broth microdilution); assay type: cell-based; details: source ATCC, 18–24 h at 37 °C, read-out: MIC
[5] = test system: Burkholderia (B.) cepacia (clinical isolate); test: MIC measurement (broth microdilution); assay type: cell-based; details: B. cepacia, source 20-10299; 18–24 h at 37 °C; read-out: MIC
[6] = test system: Enterococcus (E.) faecalis (clinical isolate); test: MIC measurement (broth microdilution); assay type: cell-based; details: Enterococcus; E. fecalis, source 442; 18–24 h at 37 °C; read-out: MIC
CYP1A2 = molecular target: T1, CYP1A2 (Homo sapiens, UniProt P05177); test: CYP enzyme fluorometric activity measurement, human hepatic microsomes; details: inhibitor 50 µM, human microsomes, 15 min; p > 0.05
T1 sequence (P05177 1-516): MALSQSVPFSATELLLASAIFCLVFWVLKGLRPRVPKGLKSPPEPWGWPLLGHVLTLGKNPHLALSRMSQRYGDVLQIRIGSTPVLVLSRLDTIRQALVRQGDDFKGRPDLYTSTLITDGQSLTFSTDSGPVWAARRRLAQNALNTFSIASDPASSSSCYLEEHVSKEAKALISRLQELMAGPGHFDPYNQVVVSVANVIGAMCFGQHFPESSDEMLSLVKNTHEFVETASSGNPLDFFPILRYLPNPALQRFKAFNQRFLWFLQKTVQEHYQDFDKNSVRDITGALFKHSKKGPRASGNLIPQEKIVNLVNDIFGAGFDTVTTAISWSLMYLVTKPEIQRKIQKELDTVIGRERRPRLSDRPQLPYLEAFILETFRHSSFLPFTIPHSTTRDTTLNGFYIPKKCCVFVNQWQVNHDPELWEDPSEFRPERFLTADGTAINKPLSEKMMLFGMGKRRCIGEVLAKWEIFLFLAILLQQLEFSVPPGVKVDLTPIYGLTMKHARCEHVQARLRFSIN
Procedure: (§1) The Biovision CYP assays (BioVision, Inc., Kampenhout, Belgium) employ non-fluorescent CYP2D6, 2C9, 2C19, 1A2, or 3A4 substrates able to undergo transformation into highly fluorescent detectable metabolites. […] Human hepatic microsomal supernatants were prepared (Gibco, Biocentre, Szeged, Hungary protein concentration: 20 mg/mL) separately by mixing 30 µL with 2425 µL assay buffer and with 50 µL nicotinamide adenine dinucleotide phosphate (NADPH) generating system (100×). […] Control measurements were performed in the absence of the inhibitors.
(§2) In background controls, only assay buffer excluding microsomes and test compounds was used in a volume of 70 µL. Subsequently, after incubation at 37 °C for 15 min, 30 µL of the suitable CYP substrate/NADP+ mixture was incorporated into each well, resulting in a final reaction volume of 100 µL/well. The obtained microsomal protein content was assessed using the bicinchoninic acid protein assay kit (Pierce BCA kit, Thermo Fisher Scientific, Waltham, MA, USA). In each assay, the microsomal protein concentration was calibrated to 100 µg/well. The fluorescence intensities were measured with a fluorometer (Victor X2 2030, Perkin Elmer, Waltham, MA, USA) using λex/em = 406/468 nm for CYP1A2 and for CYP2C19, λex/em = 415/502 nm for CYP2C9, λex/em = 390/468 nm for CYP2D6, and λex/em = 535/587 nm for CYP3A4 assays.

CYP3A4 = CYP3A4 (Homo sapiens, UniProt P08684); test: as above; details: human microsomal preparations, 15 min, 37 °C, p < 0.0001
CYP3A4, sequence (P08684 whole entry): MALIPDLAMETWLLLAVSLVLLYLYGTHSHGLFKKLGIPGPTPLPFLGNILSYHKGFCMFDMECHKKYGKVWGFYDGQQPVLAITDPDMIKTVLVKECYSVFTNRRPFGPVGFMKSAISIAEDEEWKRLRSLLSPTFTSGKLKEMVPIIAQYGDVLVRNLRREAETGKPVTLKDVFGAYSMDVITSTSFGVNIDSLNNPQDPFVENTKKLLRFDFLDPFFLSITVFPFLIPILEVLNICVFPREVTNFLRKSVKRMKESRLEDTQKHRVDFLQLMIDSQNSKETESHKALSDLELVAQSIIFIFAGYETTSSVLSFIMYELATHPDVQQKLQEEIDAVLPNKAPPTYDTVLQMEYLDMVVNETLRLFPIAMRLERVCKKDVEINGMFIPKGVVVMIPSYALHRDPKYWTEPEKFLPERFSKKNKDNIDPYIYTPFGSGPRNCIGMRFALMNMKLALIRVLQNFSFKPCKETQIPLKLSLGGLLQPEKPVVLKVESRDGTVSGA
Procedure: as §1, §2

IPEC-J2 cells = test: EC H2O2 production, Amplex red method; assay type: cell-based, porcine; details: 24 h
Procedure: For oxidative status measurements, inhibitors MI-432, MI-471, or MI-476 were used at 50 µM in the absence and presence of S. suis for 24 h in IPEC-J2 cells and in primary porcine hepatocytes on 24-well plates. An Amplex red hydrogen peroxide assay kit was used to monitor EC hydrogen peroxide (H₂O₂) production in IPEC-J2 cells and in hepatocytes. Following the manufacturer’s instructions, cell-free supernatants were collected and mixed with the Amplex red working solution (in a ratio of 1:1). A Victor X2 2030 fluorometer was used to detect fluorescence intensity at wavelengths 530 nm and 590 nm for excitation and emission, respectively.

[7] = IPEC-J2, S. suis 10^4 CFU/mL in combination with inhibitor 50 µM

Row | SMILES | MIC [1] [µM] | MIC [2] [µM] | MIC [3] [µM] | MIC [4] [µM] | MIC [5] [µM] | MIC [6] [µM] | CYP1A2 activity (CYP1A2) | CYP3A4 isoenzyme activity (CYP3A4; inhibitor 10 µM) | CYP3A4 isoenzyme activity (CYP3A4; inhibitor 25 µM) | CYP3A4 isoenzyme activity (CYP3A4; inhibitor 50 µM) | EC H2O2 production (IPEC-J2 cells; [7]) | EC H2O2 production (IPEC-J2 cells; IPEC-J2, inhibitor alone 50 µM)
1 | N=C(N)c1cccc(C[C@H](NS(=O)(=O)c2cccc(-c3ccc(Cl)cc3Cl)c2)C(=O)N2CCC(N)CC2)c1 [MI-471] | > 800 | > 800 | 50 (≈ 28.7 µg/mL) | 100 (≈ 57.5 µg/mL) | 400 (≈ 230 µg/mL) | > 800 | No significant inhibitory effects | mitigated | mitigated | mitigated | significant increase; also recorded: significant elevation in H2O2 levels | unchanged H₂O₂ production
2 | N=C(N)c1cccc(C[C@H](NS(=O)(=O)c2cccc(-c3ccc(Cl)cc3Cl)c2)C(=O)N2CCC(CN)CC2)c1 [MI-476] | > 800 | > 800 | 50 (≈ 29.4 µg/mL) | 100 (≈ 58.9 µg/mL) | 400 (≈ 235 µg/mL) | > 800 | No significant inhibitory effects | mitigated | mitigated | mitigated | unchanged H₂O₂ production; also recorded: antioxidant properties | unchanged H₂O₂ production
